Measured values taken from patent publication US6503449B1, “Process for the control of microbial contamination in water-based solids suspensions” (Ciba Specialty Chemicals Corporation, priority 1998, dated 2003).

System: mixture of Gram positive and Gram negative bacteria
Assay: Sonication of Pigment Red 23 dispersion of Example 2 with biocide, bacterial contamination check
Format: cell-based
Set-up: key: −: no bacterial colonies detected; +: light contamination (10^0 and 10^3 cfu/ml); ++: moderate contamination(10^3-10^5 cfu/ml); +++: heavy contamination(>10^5 cfu/ml)
Excerpt: A mixture of Pigment Red 23, available from Ciba Specialty Chemicals(UK) Ltd., 215.5 parts, Emulan OG (RTM) (35% solution in water), available from BASF, 153.7 parts, tributyl phosphate, available from Albright & Wilson, 2 parts, and water, 128.8 parts, are dispersed by re-circulation through a Bachofen KDL200 bead-mill until colouristic properties are within specification of UNISPERSE (RTM) Red RBS-PI, available from Ciba Specialty Chemicals(UK) Ltd., and adjusted to pH 8.0-8.5 with 20% sodium hydroxide solution. This material is identified as containing the Gram negative bacterium, Pseudomonas putida. 50 millilitre aliquots of this dispersion containing levels of glutaraldehyde (pentane-1,5-dialdehyde), available as the trade product Protectol GDA form BASF or Ucarcide from Union Carbide, between 0 parts per million (ppm) and 2000 ppm are sonicated using a Branson MSE sonicator with a 19 mm horn probe resonating at 20 kHz with an amplitude of 6 microns. Sonication is undertaken in a 100 millilitre glass beaker, diameter 38 mm, with magnetic flea agitator and cooled in a water/ice bath to maintain temperature at 28-32° C. Bacterial growth in each sample is assessed at 5 minute intervals by streaking each dispersion on to Nutrient Agar(NA) plates and incubating the plates for a minimum of 48 hours at 30° C. The plates are then examined for bacterial colonies and expressed according to the following notation:
A mixture of Pigment Red 23,215.5 parts, Emulan OG (RTM) (35% solution in water), 153.7 parts, tributyl phosphate, 2 parts, and water, 128.8 parts are dispersed by re-circulation through a Bachofen KDL200 bead-mill until colouristic properties are within specification of UNISPERSE (RTM) Red RBS-PI as detailed in Example 1 and adjusted to pH 8.0-8.5 with 20% sodium hydroxide solution. This material is identified as having a bacterial count of 4.8×10^6 colony-forming units (cfu) per millilitre comprised of a mixture of Gram positive and Gram negative bacteria. It is treated with 250 parts per million(ppm) of pentane 1,5-dialdehyde and pumped through a 2406 Nearfield Accoustical Processor sonicating at 16 kHz and 20 kHz respectively with a plate separation of 6 mm (approximately) at a flow rate of 750 kg/hr. Assessment bacterial activity is then done by spreading a sample of the pigment dispersion on Nutrient Agar(NA) plates and incubating at 30° C. for 48 hours. […] The temperature rise is 1° C. per pass, from a starting value of 20° C.
The solids dispersion as defined in Example 2, containing the mixture of Gram positive and Gram negative bacteria, is treated separately with 200 ppm and 500 ppm of pentane-1,5-dialdeyde (Ucarcide 250 (RTM)), and with 200 ppm and 500 ppm of CIT/MIT mixture (Acticide LG (RTM)) and each sonicated for a period of 30 minutes according to the process defined in Example 1. Each sample is then checked for bacterial contamination over following 28 days.

`O=CCCCC=O` [glutaraldehyde, pentane-1,5-dialdehyde] was tested, and the bacterial contamination (Ucarcide 250 200 ppm, 1 days after sonication) was “−”, the bacterial contamination (Ucarcide 250 200 ppm, 2 days after sonication) was “−” and the bacterial contamination (Ucarcide 250 200 ppm, 7 days after sonication) was “−”. For the same compound, the bacterial contamination (Ucarcide 250 200 ppm, 14 days after sonication) was “−”, the bacterial contamination (Ucarcide 250 200 ppm, 28 days after sonication) was “−” and the bacterial contamination (Ucarcide 250 200 ppm, sonicated 0 mins.) was “+++ (heavy contamination(>10^5 cfu/ml))”. For the same compound, the bacterial contamination (Ucarcide 250 200 ppm, sonicated 5 mins.) was “++ (moderate contamination(10^3-10^5 cfu/ml))”, the bacterial contamination (Ucarcide 250 200 ppm, sonicated 10 mins.) was “−” and the bacterial contamination (Ucarcide 250 200 ppm, sonicated 15 mins.) was “−”. The bacterial contamination (Ucarcide 250 200 ppm, sonicated 20 mins.) was “−”, the bacterial contamination (Ucarcide 250 200 ppm, sonicated 25 mins.) was “−” and the bacterial contamination (Ucarcide 250 200 ppm, sonicated 30 mins.) was “−”. The bacterial contamination (Ucarcide 250 500 ppm, 1 days after sonication) was “−”, the bacterial contamination (Ucarcide 250 500 ppm, 2 days after sonication) was “−” and the bacterial contamination (Ucarcide 250 500 ppm, 7 days after sonication) was “−”. The bacterial contamination (Ucarcide 250 500 ppm, 14 days after sonication) was “−”, the bacterial contamination (Ucarcide 250 500 ppm, 28 days after sonication) was “−” and the bacterial contamination (Ucarcide 250 500 ppm, sonicated 0 mins.) was “+++ (heavy contamination(>10^5 cfu/ml))”. The bacterial contamination (Ucarcide 250 500 ppm, sonicated 5 mins.) was “−”, the bacterial contamination (Ucarcide 250 500 ppm, sonicated 10 mins.) was “−” and the bacterial contamination (Ucarcide 250 500 ppm, sonicated 15 mins.) was “−”. For the same compound, the bacterial contamination (Ucarcide 250 500 ppm, sonicated 20 mins.) was “−”, the bacterial contamination (Ucarcide 250 500 ppm, sonicated 25 mins.) was “−” and the bacterial contamination (Ucarcide 250 500 ppm, sonicated 30 mins.) was “−”.
